Like-named read-outs stand apart in the source and are kept apart here.
Columns and labels:
HT29 cells = assay: HT29 (MSS) 7 day viability, CellTiter Glo; type: cell-based; settings: Homo sapiens, HT-29, 168 h, 7 days, read-out: HT29 (MSS) Viability 7 Day CTGAbs AC50
In short: (§1)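 For each line, compound dilution series (3-fold, 10 points) met a defined seeding density—HCT116 50, HT29 500 cells/well—followed by 7 days at 37 °C. Luminescent ATP signal, background-corrected with no-cell wells, gave four-parameter logistic IC50s.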

[1] = molecular target: T1, Full length WRN protein (aa 2-1432) (Homo sapiens (Human), UniProt Q14191); assay: WRN ATPase ADP-Glo biochemical assay, Assay Format A (10 μM ATP); settings: 0.25 nM WRN, 100 nM C6.18 ssDNA, 30 min preincubation, read-out: ATPase ADPGlo AC50 (uM)- Assay Format A
T1 sequence (Q14191 2-1432): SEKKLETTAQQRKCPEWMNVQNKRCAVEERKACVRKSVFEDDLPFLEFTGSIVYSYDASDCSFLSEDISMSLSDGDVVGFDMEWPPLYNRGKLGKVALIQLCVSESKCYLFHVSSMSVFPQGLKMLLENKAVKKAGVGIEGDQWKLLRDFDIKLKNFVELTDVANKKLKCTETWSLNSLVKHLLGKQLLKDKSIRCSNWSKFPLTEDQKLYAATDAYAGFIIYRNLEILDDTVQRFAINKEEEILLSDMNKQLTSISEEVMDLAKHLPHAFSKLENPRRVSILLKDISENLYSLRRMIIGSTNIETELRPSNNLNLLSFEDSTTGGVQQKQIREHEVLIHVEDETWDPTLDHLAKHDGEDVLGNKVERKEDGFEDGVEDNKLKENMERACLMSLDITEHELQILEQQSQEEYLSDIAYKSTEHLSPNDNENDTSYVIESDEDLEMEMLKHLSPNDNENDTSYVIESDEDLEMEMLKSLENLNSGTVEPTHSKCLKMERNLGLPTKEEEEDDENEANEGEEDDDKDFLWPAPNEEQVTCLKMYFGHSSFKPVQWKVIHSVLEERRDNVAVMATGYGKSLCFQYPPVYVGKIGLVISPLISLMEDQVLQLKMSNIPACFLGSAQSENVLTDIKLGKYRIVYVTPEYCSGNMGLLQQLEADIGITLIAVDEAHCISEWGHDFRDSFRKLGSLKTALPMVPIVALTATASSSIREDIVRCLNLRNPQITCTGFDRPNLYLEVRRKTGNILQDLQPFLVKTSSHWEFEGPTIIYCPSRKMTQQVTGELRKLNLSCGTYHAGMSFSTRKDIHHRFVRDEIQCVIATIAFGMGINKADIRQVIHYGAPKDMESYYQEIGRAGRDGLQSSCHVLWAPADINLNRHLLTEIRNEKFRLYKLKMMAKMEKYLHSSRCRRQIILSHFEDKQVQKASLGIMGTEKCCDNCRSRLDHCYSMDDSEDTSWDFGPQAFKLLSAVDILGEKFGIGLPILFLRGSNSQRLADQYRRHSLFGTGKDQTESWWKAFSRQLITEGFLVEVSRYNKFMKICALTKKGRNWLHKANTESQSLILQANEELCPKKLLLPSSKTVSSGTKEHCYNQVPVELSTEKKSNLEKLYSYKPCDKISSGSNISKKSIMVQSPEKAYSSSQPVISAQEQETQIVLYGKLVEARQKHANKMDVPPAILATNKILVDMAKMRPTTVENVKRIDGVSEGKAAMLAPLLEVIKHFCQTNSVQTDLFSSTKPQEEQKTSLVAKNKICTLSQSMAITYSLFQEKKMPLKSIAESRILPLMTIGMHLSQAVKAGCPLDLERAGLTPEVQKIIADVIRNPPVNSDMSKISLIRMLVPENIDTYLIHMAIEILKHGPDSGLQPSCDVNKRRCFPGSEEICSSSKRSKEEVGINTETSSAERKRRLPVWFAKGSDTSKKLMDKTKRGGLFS
In short: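 ADP-Glo luminescence measured hydrolysis of ATP by purified, baculovirus-expressed N-terminally tagged full-length WRN. Enzyme (0.5 nM) was preincubated 30 min with compound, then 200 nM ssDNA C6.18 plus 20 μM ATP were added (pre-mix levels) for 30 min at RT. IC50s come from four-parameter fits, geometric mean of at least two trials.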

HCT116 cells = assay: HCT116 (MSI) 7 day viability, CellTiter Glo; type: cell-based; settings: 7 days, read-out: HCT116 (MSI) Viability 7 Day Abs AC50
In short: as §1

[2] = molecular target: T1, Full length WRN protein (aa 2-1432); assay: WRN ATPase ADP-Glo biochemical assay, Assay Format B (100 μM ATP); settings: 0.25 nM WRN, 100 nM C6.18 ssDNA, 60 min preincubation, read-out: ATPase ADPGlo AC50 (uM)- Assay Format B

Row | SMILES | AC50 [1] | AC50 [2] | AC50 (HT29 cells) | AC50 (HCT116 cells; Homo sapiens, HCT-116, 168 h) | AC50 (HCT116 cells)
1 | CC(C)c1ccc(-n2nc3c4c2CCN(C(=O)c2ccc(Br)c5[nH]cnc25)C4CN(C(=O)/C=C/CN(C)C)CC3)cc1 (stereo not shown) [Compound 15, 1-(5-(7-bromo-1H-benzo[d]imidazole-4-carbonyl)-2-(4-isopropylphenyl)-2,3,4,5,5a,6,8,9-octahydro-7H-1,2,5,7-tetraazabenzo[cd]azulen-7-yl)-4-(dimethylamino)but-2-en-1-one] | 0.015 to 0.055 µM | > 0.055 µM | > 3000 nM | 250 to 500 nM | 
2 | C=CC(=O)N1CCc2nn(-c3ccc(C4CCC4)cc3O)c3c2C(C1)N(C(=O)c1ccc2c(Br)n[nH]c2c1)CC3 (stereo not shown) [Compound 24, 1-(5-(3-bromo-1H-indazole-6-carbonyl)-2-(4-cyclobutyl-2-hydroxyphenyl)-2,3,4,5,5a,6,8,9-octahydro-7H-1,2,5,7-tetraazabenzo[cd]azulen-7-yl)prop-2-en-1-one] | < 0.0015 µM | 0.005 to 0.015 µM | > 3000 nM | 1 to 100 nM | 
3 | C=CC(=O)N1CCc2nn(-c3ccc(C4CC4)cc3)c3c2C(C1)N(C(=O)c1ccc(Br)c2[nH]nc(N)c12)CC3 (stereo not shown) [Compound 131, 1-(5-(3-amino-7-bromo-1H-indazole-4-carbonyl)-2-(4-cyclopropylphenyl)-2,3,4,5,5a,6,8,9-octahydro-7H-1,2,5,7-tetraazabenzo[cd]azulen-7-yl)prop-2-en-1-one] | < 0.0015 µM | 0.005 to 0.015 µM | > 3000 nM | 1 to 100 nM | 
4 | C=CC(=O)N1CCOc2nn(-c3ccc(C45CC(C4)C5)cc3)c3c2C(C1)N(C(=O)c1ccc(Br)c2[nH]cnc12)CC3 (stereo not shown) [Compound 43, 1-(2-(4-(bicyclo[1.1.1]pentan-1-yl)phenyl)-5-(7-bromo-1H-benzo[d]imidazole-4-carbonyl)-2,3,4,5,5a,6,8,9-octahydro-7H-10-oxa-1,2,5,7-tetraazacycloocta[cd]inden-7-yl)prop-2-en-1-one] | < 0.0015 µM | 0.005 to 0.015 µM | > 3000 nM | 1 to 100 nM | 
5 | C=CC(=O)N1CC(F)Oc2nn(-c3ccc(C(C)C)cc3)c3c2C(C1)N(C(=O)c1ccc(Br)c2[nH]cnc12)CC3 (stereo not shown) [Compound 54, 1-(5-(7-bromo-1H-benzo[d]imidazole-4-carbonyl)-9-fluoro-2-(4-isopropylphenyl)-2,3,4,5,5a,6,8,9-octahydro-7H-10-oxa-1,2,5,7-tetraazacycloocta[cd]inden-7-yl)prop-2-en-1-one] | < 0.0015 µM | 0.005 to 0.015 µM | > 3000 nM |  | > 1000 nM
6 | C=CC(=O)N1CCc2nn(-c3ccc(C(C)C)cc3)c3c2C(C1)N(C(=O)c1cnc(C(F)(F)F)c(O)c1)CC3 (stereo not shown) [Compound 14, 1-(5-(5-hydroxy-6-(trifluoromethyl)nicotinoyl)-2-(4-isopropylphenyl)-2,3,4,5,5a,6,8,9-octahydro-7H-1,2,5,7-tetraazabenzo[cd]azulen-7-yl)prop-2-en-1-one] | 0.0015 to 0.005 µM | 0.015 to 0.055 µM | > 3000 nM | 1 to 100 nM | 
7 | C=CC(=O)N1CC(C)c2nn(-c3ccc(C(C)C)cc3O)c3c2C(C1)N(C(=O)c1ccc(Br)c2[nH]cnc12)CC3 (stereo not shown) [Compound 31, 1-(5-(7-bromo-1H-benzo[d]imidazole-4-carbonyl)-2-(2-hydroxy-4-isopropylphenyl)-9-methyl-2,3,4,5,5a,6,8,9-octahydro-7H-1,2,5,7-tetraazabenzo[cd]azulen-7-yl)prop-2-en-1-one] | 0.0015 to 0.005 µM | 0.015 to 0.055 µM | > 3000 nM |  | 250 to 500 nM
8 | C=CC(=O)N1CCc2nn(-c3ccc(C(C)C)cc3)c3c2C(C1)N(C(=O)c1ccc(Br)cc1C(N)=O)CC3 (stereo not shown) [Compound 61, 2-(7-acryloyl-2-(4-isopropylphenyl)-3,4,5,5a,6,7,8,9-octahydro-2H-1,2,5,7-tetraazabenzo[cd]azulene-5-carbonyl)-5-bromobenzamide] | 0.005 to 0.015 µM | > 0.055 µM | > 3000 nM | 250 to 500 nM | 

Now from value to compound, other results behind:

Row | AC50 [1] | AC50 [2] | SMILES | AC50 (HT29 cells) | AC50 (HCT116 cells; Homo sapiens, HCT-116, 168 h) | AC50 (HCT116 cells)
9 | < 0.0015 µM | 0.005 to 0.015 µM | C=CC(=O)N1CCc2nn(-c3ccc(C4CC4)cc3O)c3c2C(C1)N(C(=O)c1cnc(Cl)cc1N)CC3 (stereo not shown) [Compound 196, 1-(5-(4-amino-6-chloronicotinoyl)-2-(4-cyclopropyl-2-hydroxyphenyl)-2,3,4,5,5a,6,8,9-octahydro-7H-1,2,5,7-tetraazabenzo[cd]azulen-7-yl)prop-2-en-1-one] | > 3000 nM | 1 to 100 nM | 
10 | < 0.0015 µM | 0.005 to 0.015 µM | C=CC(=O)N1CCc2nn(-c3ccc(C4CCC4)cc3O)c3c2C(C1)N(C(=O)c1cnc(C(F)(F)F)cc1N)CC3 (stereo not shown) [Compound 138, 1-(5-(4-amino-6-(trifluoromethyl)nicotinoyl)-2-(4-cyclobutyl-2-hydroxyphenyl)-2,3,4,5,5a,6,8,9-octahydro-7H-1,2,5,7-tetraazabenzo[cd]azulen-7-yl)prop-2-en-1-one] | > 3000 nM | 1 to 100 nM | 
11 | 0.005 to 0.015 µM | 0.015 to 0.055 µM | C=CC(=O)N1CCc2nn(-c3ccc(C4CC4)cc3)c3c2C(C1)N(C(=O)c1ccc(OC(F)F)nc1)CC3 (stereo not shown) [Compound 69, 1-(2-(4-cyclopropylphenyl)-5-(6-(difluoromethoxy)nicotinoyl)-2,3,4,5,5a,6,8,9-octahydro-7H-1,2,5,7-tetraazabenzo[cd]azulen-7-yl)prop-2-en-1-one] | > 3000 nM | 100 to 250 nM | 
12 | < 0.0015 µM | 0.015 to 0.055 µM | C=CC(=O)N1CCc2nn(-c3ccc(C4CC4)cc3)c3c2C(C1)N(C(=O)c1ccc(Cl)nc1N)CC3 (stereo not shown) [Compound 167, 1-(5-(2-amino-6-chloronicotinoyl)-2-(4-cyclopropylphenyl)-2,3,4,5,5a,6,8,9-octahydro-7H-1,2,5,7-tetraazabenzo[cd]azulen-7-yl)prop-2-en-1-one] | > 3000 nM | 1 to 100 nM | 
13 | 0.015 to 0.055 µM | > 0.055 µM | C=CC(=O)N1CCc2nn(-c3ccc(C4CC4)cc3C(F)(F)F)c3c2C(C1)N(C(=O)c1cnc(C(F)(F)F)cc1N)CC3 (stereo not shown) [Compound 256, 1-(5-(4-amino-6-(trifluoromethyl)nicotinoyl)-2-(4-cyclopropyl-2-(trifluoromethyl)phenyl)-2,3,4,5,5a,6,8,9-octahydro-7H-1,2,5,7-tetraazabenzo[cd]azulen-7-yl)prop-2-en-1-one] | > 3000 nM | 250 to 500 nM | 
14 | 0.0015 to 0.005 µM | 0.0015 to 0.005 µM | C=CC(=O)N1CCc2nn(-c3ccc(C4CC4)cc3O)c3c2C(C1)N(C(=O)c1cnc(C(C)(F)F)c(F)c1N)CC3 (stereo not shown) [Compound 206, 1-(5-(4-amino-6-(1,1-difluoroethyl)-5-fluoronicotinoyl)-2-(4-cyclopropyl-2-hydroxyphenyl)-2,3,4,5,5a,6,8,9-octahydro-7H-1,2,5,7-tetraazabenzo[cd]azulen-7-yl)prop-2-en-1-one] | > 3000 nM | 1 to 100 nM | 
15 | < 0.0015 µM | 0.015 to 0.055 µM | C=CC(=O)N1CCc2nn(-c3ccc(C45CC(C4)C5)cc3O)c3c2C(C1)N(C(=O)c1cnc(C(F)(F)F)c(O)c1)CC3 (stereo not shown) [Compound 92, 1-(2-(4-(bicyclo[1.1.1]pentan-1-yl)-2-hydroxyphenyl)-5-(5-hydroxy-6-(trifluoromethyl)nicotinoyl)-2,3,4,5,5a,6,8,9-octahydro-7H-1,2,5,7-tetraazabenzo[cd]azulen-7-yl)prop-2-en-1-one] | > 3000 nM | 1 to 100 nM | 
16 | < 0.0015 µM | 0.005 to 0.015 µM | C=CC(=O)N1CCc2nn(-c3ccc(C4CC4)cc3O)c3c2C(C1)N(C(=O)c1cnc(OC(F)F)cc1N)CC3 (stereo not shown) [Compound 192, 1-(5-(4-amino-6-(difluoromethoxy)nicotinoyl)-2-(4-cyclopropyl-2-hydroxyphenyl)-2,3,4,5,5a,6,8,9-octahydro-7H-1,2,5,7-tetraazabenzo[cd]azulen-7-yl)prop-2-en-1-one] | > 3000 nM | 1 to 100 nM | 
17 | < 0.0015 µM | 0.0015 to 0.005 µM | C=CC(=O)N1CCc2nn(-c3ccc(C4CC4)cc3)c3c2C(C1)N(C(=O)c1cnc(Cl)c(F)c1N)CC3 (stereo not shown) [Compound 181, 1-(5-(4-amino-6-chloro-5-fluoronicotinoyl)-2-(4-cyclopropylphenyl)-2,3,4,5,5a,6,8,9-octahydro-7H-1,2,5,7-tetraazabenzo[cd]azulen-7-yl)prop-2-en-1-one] | > 3000 nM | 1 to 100 nM | 
18 | < 0.0015 µM | 0.0015 to 0.005 µM | C=CC(=O)N1CCc2nn(-c3ccc(C4CC4)cc3)c3c2C(C1)N(C(=O)c1cnc(C(C)(F)F)cc1N)CC3 (stereo not shown) [Compound 183, 1-(5-(4-amino-6-(1,1-difluoroethyl)nicotinoyl)-2-(4-cyclopropylphenyl)-2,3,4,5,5a,6,8,9-octahydro-7H-1,2,5,7-tetraazabenzo[cd]azulen-7-yl)prop-2-en-1-one] | > 3000 nM | 1 to 100 nM | 
19 | 0.0015 to 0.005 µM | 0.015 to 0.055 µM | C=CC(=O)N1CCOc2nn(-c3ccc(C4CC4)cc3)c3c2C(C1)N(C(=O)c1ccc(C(F)(F)F)c2[nH]ncc12)CC3 (stereo not shown) [Compound 50, 1-(2-(4-cyclopropylphenyl)-5-(7-(trifluoromethyl)-1H-indazole-4-carbonyl)-2,3,4,5,5a,6,8,9-octahydro-7H-10-oxa-1,2,5,7-tetraazacycloocta[cd]inden-7-yl)prop-2-en-1-one] | > 3000 nM | 100 to 250 nM | 

— patent US20250346600A1, “TRICYCLIC DERIVATIVES AND RELATED USES” (MOMA Therapeutics, Inc., priority 2023, published 2025)
